{"source": "paper PMC7206119", "about": "“RIP1 inhibition blocks inflammatory diseases but not tumor growth or metastases” (Cell Death and Differentiation, 2019)", "test_in_all_cases": "biochemical", "parameters_in_all_cases": "DiscoverX kinase panel, active-site competition binding (KINOMEscan type), percent of control at one concentration", "conditions_in_all_cases": "competition binding, percent of control", "key": {"p38-alpha": {"biological_target": "T1, p38-alpha (Homo sapiens, UniProt Q16539)", "T1 construct": "gene MAPK14"}, "ULK3": {"biological_target": "ULK3 (Homo sapiens, UniProt Q6PHR2)", "sequence (Q6PHR2 whole entry)": "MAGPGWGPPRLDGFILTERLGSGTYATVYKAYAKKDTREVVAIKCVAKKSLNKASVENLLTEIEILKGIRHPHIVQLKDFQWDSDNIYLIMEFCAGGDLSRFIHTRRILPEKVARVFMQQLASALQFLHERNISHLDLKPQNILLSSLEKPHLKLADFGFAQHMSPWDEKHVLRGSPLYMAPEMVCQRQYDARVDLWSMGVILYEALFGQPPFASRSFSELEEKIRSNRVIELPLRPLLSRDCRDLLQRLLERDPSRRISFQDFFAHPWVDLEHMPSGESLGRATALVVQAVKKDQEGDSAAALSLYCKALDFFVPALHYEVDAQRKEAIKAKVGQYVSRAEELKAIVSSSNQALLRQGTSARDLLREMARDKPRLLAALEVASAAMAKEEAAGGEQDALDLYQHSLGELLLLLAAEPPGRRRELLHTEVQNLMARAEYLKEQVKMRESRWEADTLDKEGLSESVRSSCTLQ"}, "IRAK1": {"biological_target": "IRAK1 (Homo sapiens, UniProt P51617)"}, "EPHB1": {"biological_target": "EPHB1 (Homo sapiens, UniProt P54762)"}, "PIK3CA(E542K)": {"biological_target": "PIK3CA(E542K) (Homo sapiens, UniProt P42336, E542K)", "sequence (P42336 whole entry E542K)": "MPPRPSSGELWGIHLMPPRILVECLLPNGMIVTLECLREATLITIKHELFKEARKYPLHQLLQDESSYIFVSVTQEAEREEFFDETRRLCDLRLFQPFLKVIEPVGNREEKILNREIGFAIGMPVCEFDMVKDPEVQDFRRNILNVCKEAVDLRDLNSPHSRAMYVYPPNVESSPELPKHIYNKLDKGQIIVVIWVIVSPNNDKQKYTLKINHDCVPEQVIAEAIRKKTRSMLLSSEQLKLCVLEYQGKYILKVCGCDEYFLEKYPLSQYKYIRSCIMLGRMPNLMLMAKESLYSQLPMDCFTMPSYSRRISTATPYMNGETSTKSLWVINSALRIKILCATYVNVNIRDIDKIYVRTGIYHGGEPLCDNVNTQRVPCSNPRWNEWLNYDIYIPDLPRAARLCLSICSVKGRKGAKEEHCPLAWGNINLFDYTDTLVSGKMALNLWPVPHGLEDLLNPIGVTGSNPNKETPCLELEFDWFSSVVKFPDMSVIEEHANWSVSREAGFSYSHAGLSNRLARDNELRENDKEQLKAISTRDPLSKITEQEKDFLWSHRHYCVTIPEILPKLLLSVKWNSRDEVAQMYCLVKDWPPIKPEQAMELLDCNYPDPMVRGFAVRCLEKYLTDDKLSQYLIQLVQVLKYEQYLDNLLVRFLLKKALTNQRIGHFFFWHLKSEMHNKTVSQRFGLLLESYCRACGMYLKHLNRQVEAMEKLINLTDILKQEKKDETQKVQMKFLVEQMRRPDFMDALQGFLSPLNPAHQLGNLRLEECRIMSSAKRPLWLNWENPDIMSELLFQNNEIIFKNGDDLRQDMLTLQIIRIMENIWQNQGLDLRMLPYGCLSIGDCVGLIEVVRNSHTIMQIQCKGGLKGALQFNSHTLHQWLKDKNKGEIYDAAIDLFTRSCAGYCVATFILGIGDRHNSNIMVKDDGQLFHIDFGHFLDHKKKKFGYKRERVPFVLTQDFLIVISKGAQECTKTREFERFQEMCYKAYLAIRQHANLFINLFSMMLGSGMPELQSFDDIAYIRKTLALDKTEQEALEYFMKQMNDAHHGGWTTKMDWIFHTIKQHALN"}, "FLT3-autoinhibited": {"biological_target": "FLT3-autoinhibited (Homo sapiens, UniProt P36888)"}, "ERK4": {"biological_target": "T2, ERK4 (Homo sapiens, UniProt P31152)", "T2 construct": "gene MAPK4"}, "CIT": {"biological_target": "CIT (Homo sapiens, UniProt O14578)"}, "CDK4-cyclinD3": {"biological_target": "T3, CDK4-cyclinD3 (Homo sapiens, UniProt P11802)", "T3 construct": "cyclinD3"}, "MYO3A": {"biological_target": "MYO3A (Homo sapiens, UniProt Q8NEV4)"}, "PAK6": {"biological_target": "PAK6 (Homo sapiens, UniProt Q9NQU5)"}, "PIK3CB": {"biological_target": "PIK3CB (Homo sapiens, UniProt P42338)", "sequence (P42338 whole entry)": "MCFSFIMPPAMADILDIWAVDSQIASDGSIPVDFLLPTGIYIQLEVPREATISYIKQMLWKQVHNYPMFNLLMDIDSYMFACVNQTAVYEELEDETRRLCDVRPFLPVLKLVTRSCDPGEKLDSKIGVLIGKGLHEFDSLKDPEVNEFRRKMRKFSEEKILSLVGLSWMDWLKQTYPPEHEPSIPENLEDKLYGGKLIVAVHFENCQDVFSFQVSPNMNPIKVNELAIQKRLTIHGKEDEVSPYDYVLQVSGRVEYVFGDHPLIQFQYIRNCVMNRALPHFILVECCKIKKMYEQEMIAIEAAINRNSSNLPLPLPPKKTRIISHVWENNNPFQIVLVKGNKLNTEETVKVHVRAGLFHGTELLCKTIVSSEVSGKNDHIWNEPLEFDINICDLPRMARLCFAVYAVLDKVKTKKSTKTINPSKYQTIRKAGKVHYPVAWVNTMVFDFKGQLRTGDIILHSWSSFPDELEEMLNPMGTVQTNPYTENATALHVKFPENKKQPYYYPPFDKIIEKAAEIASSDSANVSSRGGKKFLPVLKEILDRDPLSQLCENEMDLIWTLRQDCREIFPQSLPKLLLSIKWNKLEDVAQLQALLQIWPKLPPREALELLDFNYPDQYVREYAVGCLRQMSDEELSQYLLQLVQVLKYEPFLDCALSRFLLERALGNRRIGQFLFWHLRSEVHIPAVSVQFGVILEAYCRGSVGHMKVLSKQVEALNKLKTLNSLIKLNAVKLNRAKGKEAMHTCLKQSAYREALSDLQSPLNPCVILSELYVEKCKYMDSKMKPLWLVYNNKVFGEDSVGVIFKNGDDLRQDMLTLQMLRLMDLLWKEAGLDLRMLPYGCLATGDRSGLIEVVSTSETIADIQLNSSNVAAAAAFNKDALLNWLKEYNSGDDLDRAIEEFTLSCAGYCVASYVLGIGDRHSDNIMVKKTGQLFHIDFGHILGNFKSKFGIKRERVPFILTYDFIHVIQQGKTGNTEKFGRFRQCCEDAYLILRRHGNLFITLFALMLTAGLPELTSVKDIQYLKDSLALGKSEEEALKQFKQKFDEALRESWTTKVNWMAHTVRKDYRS"}, "PAK3": {"biological_target": "PAK3 (Homo sapiens, UniProt O75914)", "sequence (O75914 whole entry)": "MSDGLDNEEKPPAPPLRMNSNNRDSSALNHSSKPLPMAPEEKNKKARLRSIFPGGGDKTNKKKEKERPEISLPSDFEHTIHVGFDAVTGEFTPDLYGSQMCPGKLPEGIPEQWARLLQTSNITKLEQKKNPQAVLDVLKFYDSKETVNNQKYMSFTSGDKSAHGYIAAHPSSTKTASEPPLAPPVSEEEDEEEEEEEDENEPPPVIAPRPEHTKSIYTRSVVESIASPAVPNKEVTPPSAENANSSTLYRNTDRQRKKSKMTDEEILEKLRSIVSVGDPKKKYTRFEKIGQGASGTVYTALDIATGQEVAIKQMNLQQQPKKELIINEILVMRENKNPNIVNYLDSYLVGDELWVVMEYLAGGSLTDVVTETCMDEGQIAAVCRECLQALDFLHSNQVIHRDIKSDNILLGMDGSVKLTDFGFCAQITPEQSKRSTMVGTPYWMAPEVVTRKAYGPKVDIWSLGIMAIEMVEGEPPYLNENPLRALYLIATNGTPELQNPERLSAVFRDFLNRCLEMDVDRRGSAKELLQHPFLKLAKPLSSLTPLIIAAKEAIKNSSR"}, "AURKA": {"biological_target": "AURKA (Homo sapiens, UniProt O14965)"}, "KIT(A829P)": {"biological_target": "KIT(A829P) (Homo sapiens, UniProt P10721, A829P)"}, "CSNK1A1L": {"biological_target": "CSNK1A1L (Homo sapiens, UniProt Q8N752)", "sequence (Q8N752 whole entry)": "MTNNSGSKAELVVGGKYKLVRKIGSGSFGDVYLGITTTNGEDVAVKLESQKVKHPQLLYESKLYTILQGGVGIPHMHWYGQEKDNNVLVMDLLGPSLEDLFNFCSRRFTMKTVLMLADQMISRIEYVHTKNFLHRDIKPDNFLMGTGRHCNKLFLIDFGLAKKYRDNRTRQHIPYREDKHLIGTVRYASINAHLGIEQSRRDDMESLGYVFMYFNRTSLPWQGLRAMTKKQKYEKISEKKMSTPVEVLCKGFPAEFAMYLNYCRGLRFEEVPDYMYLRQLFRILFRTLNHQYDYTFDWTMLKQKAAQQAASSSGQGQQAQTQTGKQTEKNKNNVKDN"}, "WEE1": {"biological_target": "WEE1 (Homo sapiens, UniProt P30291)", "sequence (P30291 whole entry)": "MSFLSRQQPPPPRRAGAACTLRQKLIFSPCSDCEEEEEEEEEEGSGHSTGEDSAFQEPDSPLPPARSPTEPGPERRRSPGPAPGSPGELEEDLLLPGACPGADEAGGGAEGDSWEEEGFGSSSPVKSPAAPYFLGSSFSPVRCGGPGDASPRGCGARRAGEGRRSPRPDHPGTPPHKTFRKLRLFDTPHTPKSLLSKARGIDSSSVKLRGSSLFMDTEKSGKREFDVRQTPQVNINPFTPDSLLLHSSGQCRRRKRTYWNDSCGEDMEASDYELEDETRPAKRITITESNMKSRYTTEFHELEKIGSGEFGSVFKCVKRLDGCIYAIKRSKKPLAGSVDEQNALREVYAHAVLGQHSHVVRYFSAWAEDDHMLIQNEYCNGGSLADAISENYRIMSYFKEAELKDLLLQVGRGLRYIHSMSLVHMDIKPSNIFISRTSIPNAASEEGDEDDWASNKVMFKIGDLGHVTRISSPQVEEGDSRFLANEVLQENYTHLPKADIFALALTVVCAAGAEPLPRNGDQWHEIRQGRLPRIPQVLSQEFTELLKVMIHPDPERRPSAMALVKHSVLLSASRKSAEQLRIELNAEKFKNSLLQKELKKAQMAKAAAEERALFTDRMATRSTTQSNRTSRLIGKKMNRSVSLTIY"}, "CDK2": {"biological_target": "CDK2 (Homo sapiens, UniProt P24941)"}, "PRKCQ": {"biological_target": "PRKCQ (Homo sapiens, UniProt Q04759)"}, "ERK5": {"biological_target": "T4, ERK5 (Homo sapiens, UniProt Q13164)", "T4 construct": "gene MAPK7", "T4 sequence (Q13164 whole entry)": "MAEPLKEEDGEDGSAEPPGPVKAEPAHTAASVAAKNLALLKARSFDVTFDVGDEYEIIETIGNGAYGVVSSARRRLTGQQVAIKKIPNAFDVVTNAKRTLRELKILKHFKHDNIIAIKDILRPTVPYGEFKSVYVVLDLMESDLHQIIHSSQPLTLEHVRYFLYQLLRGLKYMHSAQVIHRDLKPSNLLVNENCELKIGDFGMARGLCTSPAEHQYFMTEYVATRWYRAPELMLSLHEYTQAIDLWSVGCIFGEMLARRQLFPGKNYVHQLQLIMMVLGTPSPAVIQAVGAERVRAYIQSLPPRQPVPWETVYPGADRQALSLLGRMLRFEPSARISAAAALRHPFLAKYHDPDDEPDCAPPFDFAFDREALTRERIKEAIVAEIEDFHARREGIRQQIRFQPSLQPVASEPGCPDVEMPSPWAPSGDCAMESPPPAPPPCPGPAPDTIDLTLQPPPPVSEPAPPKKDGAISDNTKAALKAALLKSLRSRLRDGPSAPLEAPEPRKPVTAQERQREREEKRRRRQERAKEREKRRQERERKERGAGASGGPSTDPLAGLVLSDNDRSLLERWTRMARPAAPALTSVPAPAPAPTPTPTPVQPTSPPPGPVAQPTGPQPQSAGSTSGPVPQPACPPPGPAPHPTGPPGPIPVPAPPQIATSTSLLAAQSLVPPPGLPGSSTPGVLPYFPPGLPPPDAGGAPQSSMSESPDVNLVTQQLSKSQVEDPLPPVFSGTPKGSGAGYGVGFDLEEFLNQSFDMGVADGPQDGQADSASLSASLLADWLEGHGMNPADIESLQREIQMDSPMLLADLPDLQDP"}, "MYO3B": {"biological_target": "MYO3B (Homo sapiens, UniProt Q8WXR4)"}, "CDK11": {"biological_target": "T5, CDK11 (Homo sapiens, UniProt Q9BWU1)", "T5 construct": "gene CDK19"}}}
{"smiles": "COc1cc2c(cn1)N(C)C(=O)[C@@H](NC(=O)c1nc3n(n1)[C@H](c1ccccc1)CC3)CC2", "note": "[GNE684, (S)-N-((S)-7-methoxy-1-methyl-2-oxo-2,3,4,5-tetrahydro-1H-pyrido[3,4-b]azepin-3-yl)-5-phenyl-6,7-dihydro-5H-pyrrolo[1,2-b][1,2,4]triazole-2-carboxamide]", "values": [{"measurement": "remaining binding at 10 µM", "setting": "p38-alpha", "value": 95, "unit": "%"}, {"measurement": "remaining binding at 10 µM", "setting": "ULK3", "value": 100, "unit": "%"}, {"measurement": "remaining binding at 10 µM", "setting": "IRAK1", "value": 96, "unit": "%"}, {"measurement": "remaining binding at 10 µM", "setting": "EPHB1", "value": 100, "unit": "%"}, {"measurement": "remaining binding at 10 µM", "setting": "PIK3CA(E542K)", "value": 41, "unit": "%"}, {"measurement": "remaining binding at 10 µM", "setting": "FLT3-autoinhibited", "value": 100, "unit": "%"}, {"measurement": "remaining binding at 10 µM", "setting": "ERK4", "value": 96, "unit": "%"}, {"measurement": "remaining binding at 10 µM", "setting": "CIT", "value": 100, "unit": "%"}, {"measurement": "remaining binding at 10 µM", "setting": "CDK4-cyclinD3", "value": 97, "unit": "%"}, {"measurement": "remaining binding at 10 µM", "setting": "MYO3A", "value": 95, "unit": "%"}, {"measurement": "remaining binding at 10 µM", "setting": "PAK6", "value": 100, "unit": "%"}, {"measurement": "remaining binding at 10 µM", "setting": "PIK3CB", "value": 100, "unit": "%"}, {"measurement": "remaining binding at 10 µM", "setting": "PAK3", "value": 99, "unit": "%"}, {"measurement": "remaining binding at 10 µM", "setting": "AURKA", "value": 96, "unit": "%"}, {"measurement": "remaining binding at 10 µM", "setting": "KIT(A829P)", "value": 100, "unit": "%"}, {"measurement": "remaining binding at 10 µM", "setting": "CSNK1A1L", "value": 100, "unit": "%"}, {"measurement": "remaining binding at 10 µM", "setting": "WEE1", "value": 69, "unit": "%"}, {"measurement": "remaining binding at 10 µM", "setting": "CDK2", "value": 100, "unit": "%"}, {"measurement": "remaining binding at 10 µM", "setting": "PRKCQ", "value": 100, "unit": "%"}, {"measurement": "remaining binding at 10 µM", "setting": "ERK5", "value": 85, "unit": "%"}, {"measurement": "remaining binding at 10 µM", "setting": "MYO3B", "value": 89, "unit": "%"}, {"measurement": "remaining binding at 10 µM", "setting": "CDK11", "value": 81, "unit": "%"}]}
